Test results: article PMC9203742 (Nature Communications, 2022)
“And” between values parts separate entries of the source, which are not always exact repeats. Equal values may be shown once.

Experiments:
Type in all cases: cell-based, mouse
[1] = tested on: Purkinje cells in cerebellar slices from mGlu1^CBC/CBC mice; assay: chemLTD recording (PF-EPSC) in Purkinje cells of acute cerebellar slices, mGlu1^CBC/CBC mice; conditions: for PF-EPSC amplitude relative to time 0: mGlu1CBC/CBC, individual cells
Description: (§1) Sagittal cerebellar slices were cut with a microslicer (Linear slicer Pro7; DOSAKA EM) in cutting solution buffer and then incubated in ACSF gassed with 5% CO2 and 95% O2 at room temperature.
(§2) Whole-cell patch-clamp recordings were made from visually identified Purkinje cells using a 60× water-immersion objective attached to an upright microscope (BX51WI, Olympus) at room temperature, as described previously. […] Picrotoxin (100 µM; Sigma) was always added to the saline to block inhibitory synaptic transmission.
(§3) To evoke EPSCs derived from CF (CF-EPSCs) and PF (PF-EPSCs) inputs onto Purkinje cells, square pulses were applied through a stimulating electrode placed on the granular layer and the molecular layer (50 µm away from the pial surface), respectively. The selective stimulation of CFs and PFs was confirmed by the paired-pulse depression (PPD) and paired-pulse facilitation (PPF) of EPSC amplitudes at a 50-ms interstimulus interval (ISI), respectively.
(§4) For the LTD sessions, PF-EPSCs were recorded successively at a frequency of 0.1 Hz from Purkinje cells clamped at –80 mV. After a stable PF-EPSC amplitude had been observed for at least 5 min, a conjunctive stimulation that consisted of 30 single PF stimuli together with a 200 ms depolarizing pulse from a holding potential of –60 to +20 mV was applied for LTD induction.
(§5) To chemically induce LTD (chemLTD), 50 µM (S)-3,5-dihydroxyphenylglycine (DHPG) or 1 µM Pd(sulfo-bpy) was applied for 10 min in a current-clamp mode. We often observed a transient decrease in PF-EPSC amplitude after the application of each drug probably because Purkinje cells under current-clamp conditions excite spontaneously to suppress presynaptic function through the retrograde signaling. Access resistances were monitored every 10 s by measuring the peak currents in response to 2 mV, 50-ms hyperpolarizing steps throughout the experiments; the measurements were discarded if the resistance changed by >20% of its original value. The normalized EPSC amplitude on the ordinate represents the EPSC amplitude for the average of six traces for 1 min divided by that of the average of six traces for 1 min immediately before the conjunctive stimulation or the drug application.

[2] = tested on: MLIs surrounded by mGlu1(N264H)-expressing Purkinje cells (AAV-L7-mGlu1^CBC); assay: sAP-mediated currents (firing rate) of MLIs in slices infected with AAV-L7-mGlu1^CBC; conditions: 10 μM Pd(sulfo-bpy); P = 0.293
Description: To monitor the excitability of MLIs, sAP-mediated current responses were extracellulary recorded by a loose cell-attached voltage-clamp at a holding potential of 0 mV. Glass electrodes used for cell-attached recordings had resistances of 3–5 MΩ when filled with ACSF. The current recordings from AAV-infected cells were performed 1−2 weeks after infection. The EPSCs and sAP-mediated currents were recorded using an Axopatch 200B amplifier (Molecular Devices), and the pClamp system (version 9.2; Molecular Devices) was used for data acquisition and analysis. The signals were filtered at 1 kHz and digitized at 4 kHz for the evoked EPSCs and 10 kHz for the sAP-mediated currents.
Injection of viral solutions was performed as described previously with slight modifications. Briefly, under deep anesthesia, with an intraperitoneal injection of medetomidine (0.3 mg/kg), midazolam (4.0 mg/kg), and butorphanol (5.0 mg/kg), 4 µL of the solutions containing AAV mixture were directly injected into the vermis of cerebellar lobules V-VIII (200-300 µm in depth, 12 µL/h in rate) of WT mice (C57BL/6J, P20-P30) using glass pipette (30–40 µm in diameter) and microinjector (Nanoliter; World Precision Instruments). In all, 1−2 week after injection, the mice were used for each experiment.

[3] = tested on: Purkinje cells in cerebellar slices from mGlu1^+/+ mice; assay: chemLTD recording (PF-EPSC) in Purkinje cells of acute cerebellar slices, mGlu1^+/+ mice; conditions: for PF-EPSC amplitude relative to time 0: mGlu1+/+, individual cells
Description: as §1, §2, §3, §4, §5

[4] = tested on: Purkinje cells in cerebellar slices from mGlu1^CBC/+ mice; assay: chemLTD recording (PF-EPSC) in Purkinje cells of acute cerebellar slices, mGlu1^CBC/+ mice; conditions: for PF-EPSC amplitude relative to time 0: mGlu1CBC/+, individual cells
Description: as §1, §2, §3, §4, §5

[5] = 1 μM Pd(sulfo-bpy) for 10 min, t = 31−35 min

Structure (SMILES): Cc1ccnc(-c2cc(COCCCS(=O)(=O)[O-])ccn2)c1.[Cl][Pd][Cl].[Na+] [Pd(sulfo-bpy)]
- chemLTD: normalized PF-EPSC amplitude [1, 5]: 71 ± 5%
- PF-EPSC amplitude relative to time 0 ([1]; time 11 min): 0.6364 and 0.5841 and 0.6893 and 0.9073 and 0.8328 and 0.7699 and 0.718 and 0.7562 and 0.9988 and 0.8349 and 0.5757
- PF-EPSC amplitude relative to time 0 ([1]; time 12 min): 0.827 and 0.5867 and 0.7148 and 0.9371 and 0.7788 and 0.6794 and 0.7449 and 0.7226 and 1.01 and 0.7931 and 0.6087
- PF-EPSC amplitude relative to time 0 ([1]; time 13 min): 0.8172 and 0.6851 and 0.7171 and 1.091 and 0.7809 and 0.6502 and 0.6746 and 0.5919 and 1.019 and 0.8421 and 0.5537
- PF-EPSC amplitude relative to time 0 ([1]; time 14 min): 0.7882 and 0.6733 and 0.6788 and 1.041 and 0.7381 and 0.6557 and 0.5543 and 0.7541 and 0.9808 and 0.752 and 0.5358
- PF-EPSC amplitude relative to time 0 ([1]; time 15 min): 0.7548 and 0.7484 and 0.6382 and 0.9601 and 0.7893 and 0.6974 and 0.5323 and 0.7206 and 0.9958 and 0.7333 and 0.563
- PF-EPSC amplitude relative to time 0 ([1]; time 16 min): 0.7642 and 0.6145 and 0.7007 and 0.8597 and 0.792 and 0.6967 and 0.6481 and 0.669 and 0.9606 and 0.6776 and 0.562
- PF-EPSC amplitude relative to time 0 ([1]; time 17 min): 0.7633 and 0.6552 and 0.685 and 0.991 and 0.7793 and 0.8388 and 0.6612 and 0.7158 and 1.026 and 0.669 and 0.5661
- PF-EPSC amplitude relative to time 0 ([1]; time 18 min): 0.7518 and 0.6433 and 0.6556 and 0.9807 and 0.8623 and 0.726 and 0.6303 and 0.6396 and 0.9248 and 0.6931 and 0.5685
- PF-EPSC amplitude relative to time 0 ([1]; time 19 min): 0.7866 and 0.7223 and 0.6298 and 1.039 and 0.7923 and 0.7732 and 0.6413 and 0.6754 and 1.015 and 0.7024 and 0.4513
- PF-EPSC amplitude relative to time 0 ([1]; time 20 min): 0.7361
- Firing rate of MLIs [2]: failed to increase
- chemLTD: normalized PF-EPSC amplitude [3, 5]: 99 ± 4%
- PF-EPSC amplitude relative to time 0 ([3]; time 11 min): 1.305 and 0.7371 and 0.3878 and 0.9487 and 0.6362 and 1.191 and 0.6572 and 0.79
- PF-EPSC amplitude relative to time 0 ([3]; time 12 min): 1.203 and 0.9018 and 0.4484 and 1.074 and 0.6455 and 1.19 and 0.9598 and 0.8251
- PF-EPSC amplitude relative to time 0 ([3]; time 13 min): 1.075 and 1.089 and 0.5282 and 1.162 and 0.6836 and 1.016 and 0.9614 and 0.7972
- PF-EPSC amplitude relative to time 0 ([3]; time 14 min): 1.127 and 1.131 and 0.639 and 1.08 and 0.8118 and 0.8848 and 0.8669 and 0.886
- PF-EPSC amplitude relative to time 0 ([3]; time 15 min): 0.8966 and 0.8928 and 0.5282 and 1.038 and 0.8059 and 0.9429 and 0.8907 and 0.8537
- PF-EPSC amplitude relative to time 0 ([3]; time 16 min): 1.016 and 0.9829 and 0.5855 and 1.115 and 0.7312 and 0.9396 and 0.9005 and 0.8573
- PF-EPSC amplitude relative to time 0 ([3]; time 17 min): 1.118 and 0.828 and 0.627 and 1.083 and 0.6712 and 0.9977 and 1.081 and 0.8535
- PF-EPSC amplitude relative to time 0 ([3]; time 18 min): 1.106 and 0.9208 and 0.5918 and 1.166 and 0.7081 and 1.026 and 1.038 and 0.9503
- PF-EPSC amplitude relative to time 0 ([3]; time 19 min): 1.038 and 0.7989 and 0.7251 and 1.08 and 0.721 and 0.8774 and 0.9331 and 0.9414
- PF-EPSC amplitude relative to time 0 ([3]; time 20 min): 1.053 and 0.8133 and 0.2871 and 1.2251 and 0.7983 and 1.16 and 1.101 and 0.9444
- PF-EPSC amplitude relative to time 0 ([3]; time 21 min): 1.169 and 0.7496 and 1.002 and 1.096 and 0.7681 and 0.9902 and 1.174 and 0.9728
- PF-EPSC amplitude relative to time 0 ([3]; time 22 min): 1.26 and 0.9695 and 1.072 and 1.131 and 0.7557 and 1.075 and 1.029 and 0.936
- PF-EPSC amplitude relative to time 0 ([3]; time 23 min): 1.263 and 0.7868 and 0.9511 and 1.11
- chemLTD: normalized PF-EPSC amplitude [4, 5]: 68 ± 5%
- PF-EPSC amplitude relative to time 0 ([4]; time 11 min): 0.4686 and 0.63 and 0.9877 and 0.796 and 0.8663 and 0.8992 and 0.747 and 0.5935
- PF-EPSC amplitude relative to time 0 ([4]; time 12 min): 0.5628 and 0.6446 and 0.9391 and 0.713 and 0.7198 and 0.9003 and 0.6921 and 0.7152
- PF-EPSC amplitude relative to time 0 ([4]; time 13 min): 0.621 and 0.6377 and 0.8863 and 0.7092 and 0.7439 and 0.8712 and 0.699 and 0.7447
- PF-EPSC amplitude relative to time 0 ([4]; time 14 min): 0.6095 and 0.6409 and 0.8383 and 0.7009 and 0.7151 and 0.836 and 0.6833 and 0.8191
- PF-EPSC amplitude relative to time 0 ([4]; time 15 min): 0.6012 and 0.6741 and 0.9189 and 0.6721 and 0.6888 and 0.8836 and 0.7293 and 0.8645
- PF-EPSC amplitude relative to time 0 ([4]; time 16 min): 0.5331 and 0.6806 and 0.916 and 0.7015 and 0.697 and 0.7978 and 0.7054 and 0.8737
- PF-EPSC amplitude relative to time 0 ([4]; time 17 min): 0.5491 and 0.6542 and 0.8424 and 0.6962 and 0.6712 and 0.7371 and 0.6859 and 0.9232
- PF-EPSC amplitude relative to time 0 ([4]; time 18 min): 0.5728 and 0.6898 and 0.851 and 0.7066 and 0.6167 and 0.9345 and 0.6617 and 0.9653
- PF-EPSC amplitude relative to time 0 ([4]; time 19 min): 0.6147 and 0.6344 and 0.8403 and 0.7161 and 0.6281 and 0.877 and 0.663 and 0.9646
- PF-EPSC amplitude relative to time 0 ([4]; time 20 min): 0.6536 and 0.6214 and 0.844 and 0.7068 and 0.6666 and 0.8676 and 0.6507 and 0.862
- PF-EPSC amplitude relative to time 0 ([4]; time 21 min): 0.6234 and 0.6163 and 0.8161 and 0.7457 and 0.6988 and 0.7776 and 0.5996 and 0.8293
- PF-EPSC amplitude relative to time 0 ([4]; time 22 min): 0.6625 and 0.6523 and 0.8492 and 0.7192 and 0.6537 and 0.814 and 0.6019 and 0.7969
- PF-EPSC amplitude relative to time 0 ([4]; time 23 min): 0.703 and 0.6662 and 0.865 and 0.711
